Measured values from patent EP3498298A1, “THE USE OF SGC STIMULATORS AND SGC ACTIVATORS ALONE OR IN COMBINATION WITH PDE5 INHIBITORS FOR THE TREATMENT OF BONE DISORDERS INCLUDING OSTEOGENESIS IMPERFECTA (OI)” (Bayer AG, priority 2017, dated 2019).

Tests used:
wild-type mice (WT) = experiment: 16 week chronic treatment study, micro-CT of femora (bone morphology and architecture) in wild-type mice; type: in vivo; conditions: 300 ppm (300mg/kg chow), 16 weeks
Excerpt: (§1) Preferentially mice were used, especially transgenic mice (B6C3Fe a/a-Col1a2 oim /J (Jackson Laboratories)) (Chipman et al. 1993, McBride et al. 1998). These so called OI-mice (OIM, also called HOM mice) carry a mutation in the collagen gen (Col1a2) which reflects the phenotype and clinical situation of patients with […] OI. For the treatment homozygous OIM are used and compared with WT mice which serve as control.
(§2) As read-outs were preferentially used: • semiquantitative RT/PCR (TaqMan PCR) to assess gene expression according to standard procedures • histopathology to assess bone morphology according to standard procedures • high-resolution micro-CTscanner (µCT 35; Scanco Medical AG, Briittisellen, Switzerland) to evaluate bone morphology and architecture (Micro-CT) • three-point bending test to assess mechanical properties of the femora (Mechanical testing)
(§3) A high-resolution micro-CTscanner (µCT 35; Scanco Medical AG, Briittisellen, Switzerland) was used to evaluate bone morphology and architecture. […] The trabecular and cortical parameters were determined according to the guidelines for the assessment of bone microstructure with micro-CT (Bouxsein et al., 2010). […]

[1] = tested on: B6C3Fe a/a-Col1a2 oim /J (OI mice) termed as HOM; experiment: 16 week chronic treatment study, micro-CT of femora (bone morphology and architecture) in OI mice; type: in vivo; conditions: 300 ppm (300mg/kg chow), 16 weeks; treated female HOM mice compared to untreated female HOM mice; P < 0.05
Excerpt: as §1, §2, §3

[2] = tested on: ovariectomized female mice; conditions: intraperitoneally, 10µg/kg bolus dose; cited from earlier work
mice = conditions: cited from earlier work

Nc1nc(-c2nn(Cc3ccccc3F)c3ncccc23)ncc1C1CC1 [BAY 41-2272, 3-(4-amino-5-cyclopropylpyrimidin-2-yl)-1-(2-fluorobenzyl)-1H-pyrazolo[3,4-b]pyridine]
structural properties of both trabecular and cortical bone (wild-type mice (WT)): no effect
trabecular number (Tb.N) [1]: increased
trabecular separation (Tb.Sp) [1]: decreased

O=C(O)CCCCN(CCc1ccccc1OCc1ccc(CCc2ccccc2)cc1)Cc1ccc(C(=O)O)cc1 [cinaciguat]
bone density [2]: could increase bone density

CCCc1nn(C)c2c(=O)[nH]c(-c3cc(S(=O)(=O)N4CCN(C)CC4)ccc3OCC)nc12 [sildenafil, 3-[2-ethoxy-5-(4-methylpiperazin-1-yl)sulfonyl-phenyl]-7-methy1-9-propy1-2,4,7,8-tetrazabicyclo [4.3.0]nona-3,8,10-trien-5-one]
fracture healing (mice): accelerates fracture healing
